Paper PMC2217334 (The Journal of General Physiology, 2003)

Target: human cardiac Na+ channel alpha subunit (SCN5A, hH1) (Homo sapiens, UniProt Q14524)
Assay: whole-cell patch clamp, use-dependent block at […] external
Format: cell-based
Settings: read-out: % use-dependent block at 10 μM

Chain of human cardiac Na+ channel alpha subunit (SCN5A, hH1) (Q14524 whole entry): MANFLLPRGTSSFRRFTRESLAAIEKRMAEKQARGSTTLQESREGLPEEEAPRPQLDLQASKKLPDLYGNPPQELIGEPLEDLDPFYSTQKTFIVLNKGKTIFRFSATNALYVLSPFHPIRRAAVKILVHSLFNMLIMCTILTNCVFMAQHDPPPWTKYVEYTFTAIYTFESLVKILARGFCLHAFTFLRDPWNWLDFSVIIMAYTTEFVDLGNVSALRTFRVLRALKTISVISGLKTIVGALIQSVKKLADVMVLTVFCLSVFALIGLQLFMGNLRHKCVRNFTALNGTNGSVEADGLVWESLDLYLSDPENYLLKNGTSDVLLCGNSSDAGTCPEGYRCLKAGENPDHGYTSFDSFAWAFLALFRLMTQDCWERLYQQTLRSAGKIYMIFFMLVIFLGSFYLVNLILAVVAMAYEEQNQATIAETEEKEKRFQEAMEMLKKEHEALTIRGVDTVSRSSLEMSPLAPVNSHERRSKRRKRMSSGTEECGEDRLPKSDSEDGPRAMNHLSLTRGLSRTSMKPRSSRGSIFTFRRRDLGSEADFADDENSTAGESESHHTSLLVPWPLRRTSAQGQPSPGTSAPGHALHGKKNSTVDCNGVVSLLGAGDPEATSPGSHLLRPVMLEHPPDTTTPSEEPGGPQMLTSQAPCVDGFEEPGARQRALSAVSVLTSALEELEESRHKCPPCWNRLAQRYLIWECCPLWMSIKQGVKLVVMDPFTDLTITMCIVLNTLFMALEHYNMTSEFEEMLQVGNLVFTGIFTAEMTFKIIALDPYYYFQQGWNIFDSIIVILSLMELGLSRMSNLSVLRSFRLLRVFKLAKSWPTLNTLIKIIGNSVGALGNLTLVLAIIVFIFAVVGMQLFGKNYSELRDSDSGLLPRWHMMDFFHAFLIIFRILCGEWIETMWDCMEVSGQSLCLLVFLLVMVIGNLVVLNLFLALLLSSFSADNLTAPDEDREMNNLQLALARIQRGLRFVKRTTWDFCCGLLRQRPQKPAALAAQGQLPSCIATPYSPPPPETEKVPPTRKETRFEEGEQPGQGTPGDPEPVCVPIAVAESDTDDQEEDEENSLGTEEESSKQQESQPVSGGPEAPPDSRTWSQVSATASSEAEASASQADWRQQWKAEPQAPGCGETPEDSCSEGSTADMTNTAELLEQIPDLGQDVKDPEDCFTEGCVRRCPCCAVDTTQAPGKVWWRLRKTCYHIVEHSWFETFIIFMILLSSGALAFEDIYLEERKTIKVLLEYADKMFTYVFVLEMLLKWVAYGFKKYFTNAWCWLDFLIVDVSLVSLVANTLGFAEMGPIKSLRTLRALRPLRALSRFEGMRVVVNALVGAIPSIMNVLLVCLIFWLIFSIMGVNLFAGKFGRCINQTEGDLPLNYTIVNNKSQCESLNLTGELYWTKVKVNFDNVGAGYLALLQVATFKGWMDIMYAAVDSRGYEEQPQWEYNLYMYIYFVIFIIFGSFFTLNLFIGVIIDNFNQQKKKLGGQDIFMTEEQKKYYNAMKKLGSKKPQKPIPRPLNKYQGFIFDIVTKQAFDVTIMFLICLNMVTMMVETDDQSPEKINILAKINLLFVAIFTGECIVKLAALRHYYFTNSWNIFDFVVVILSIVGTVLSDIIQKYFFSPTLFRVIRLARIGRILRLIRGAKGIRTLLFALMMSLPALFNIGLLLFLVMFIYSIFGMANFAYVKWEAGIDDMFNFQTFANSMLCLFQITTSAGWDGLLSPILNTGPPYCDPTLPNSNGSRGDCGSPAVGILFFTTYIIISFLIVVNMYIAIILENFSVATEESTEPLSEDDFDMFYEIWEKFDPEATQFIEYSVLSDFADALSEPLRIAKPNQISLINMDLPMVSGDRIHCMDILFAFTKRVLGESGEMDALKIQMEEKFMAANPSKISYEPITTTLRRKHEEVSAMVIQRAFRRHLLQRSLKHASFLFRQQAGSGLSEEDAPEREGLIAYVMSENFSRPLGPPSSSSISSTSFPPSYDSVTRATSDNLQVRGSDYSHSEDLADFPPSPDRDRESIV
Chain of human cardiac Na+ channel alpha subunit (SCN5A, hH1) (Q07699 19-218 partner): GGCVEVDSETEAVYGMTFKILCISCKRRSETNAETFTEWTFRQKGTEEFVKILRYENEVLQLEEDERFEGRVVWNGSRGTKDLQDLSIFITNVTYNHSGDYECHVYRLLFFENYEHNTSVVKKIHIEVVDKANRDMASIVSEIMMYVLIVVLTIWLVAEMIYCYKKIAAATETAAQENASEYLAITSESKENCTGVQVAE

O=C(NCC1CCCCN1)c1cc(OCC(F)(F)F)ccc1OCC(F)(F)F (stereo not shown) [flecainide]
inhibition at 10 µM: 67.3 ± 3.5%
